The text below walks through data of patent US8455497B2, “Inhibitors of aspartyl protease” (Vertex Pharmaceuticals Incorporated, priority 1999, dated 2013).

Where two headings read alike, the source gives them in different places. A value given as a limit tells only on which side of the number the result lay.

One assay concerns HIV-1 (strain IIIB). Nature of the assay: Antiviral activity assay in MT4 cells (propidium iodide based). It is filed as cell-based. In outline:
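Compound serial dilutions in RPMI/FCS received MT4 cells pre-infected 1 hr at 37°C with HIV-1 IIIB at 100×TCID50. After 5 days' culture and Nonidet-40 lysis, well DNA content was measured by propidium iodide dye; mock-infected cells served as control.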

The subject of assay [1] is EP13 multi protease inhibitor resistant virus. Nature of the assay: Anti-viral activity against resistant virus EP13 in MT4 cells. It is filed as cell-based, HIV-1. Here is the method:
(§1) Exponentially growing MT4 cells were harvested and centrifuged at 1000 rpm for 10 min in a Jouan centrifuge (model CR 4 12). […] Cell aliquots were infected by the addition of HIV-1 (strain IIIB) diluted to give a viral multiplicity of infection of 100×TCID50. […] Cell infection was allowed to proceed for 1 hr at 37° in a tissue culture incubator with humidified 5% CO2 atmosphere. After the 1 hr incubation the virus/cell suspensions were diluted 6-fold with fresh medium, and 125 μl of the cell suspension was added to each well of the plate containing pre-diluted compound. Plates were then placed in a tissue culture incubator with humidified 5% CO2 for 5 days. At the end of the incubation period, 27 μl of 5% Nonidet-40 was added to each well of the incubation plate. After thorough mixing with a Costar multitip pipetter, 60 μl of the mixture was transferred to filter-bottomed 96-well plates. The plates were analyzed in an automated assay instrument (Screen Machine, Idexx Laboratories). The assay makes use of a propidium iodide dye to estimate the DNA content of each well.
(§2) Anti-Viral Activity Against Resistant Viruses
EP13 and DS45701, two multi protease inhibitor resistant viruses were used to assess potency against mutant viruses. These viruses contain the following mutations relative to the consensus sequence of wild type virus:
EP13: Protease amino acid sequence: M46I, L63P, A71V, V82F/L, I84V; No reverse transcriptase mutations.

Assay [2] has as its system D545701-14 multi protease inhibitor resistant virus. Nature of the assay: Anti-viral activity against resistant virus D545701-14 in MT4 cells. Format: cell-based, HIV-1. As for the experimental part: as §1, §2
EP13 and DS45701, two multi protease inhibitor resistant viruses were used to assess potency against mutant viruses. These viruses contain the following mutations relative to the consensus sequence of wild type virus: […]

Setting [3] is: Human immunodeficiency virus 1, IIIB, wild type HIV-1 virus, MT4 cells, read-out: Wildtype virus - IC50.
The mark [4] stands for this setting: Human immunodeficiency virus 1, MT4, read-out: EP13 mutant IC50, EP13 multi protease inhibitor resistant virus, MT4 cells.
The mark [5] stands for this setting: Human immunodeficiency virus 1, MT4, read-out: D545701-14 mutant - IC50, D545701-14 multi protease inhibitor resistant virus, MT4 cells.
Where [6] appears, read: wild type HIV-1 virus, MT4 cells, read-out: Wildtype virus - IC50.
Setting [7] is: EP13 multi protease inhibitor resistant virus, MT4 cells, read-out: EP13 mutant IC50.
Setting [8] is: D545701-14 multi protease inhibitor resistant virus, MT4 cells, read-out: D545701-14 mutant - IC50.

`CC(C)CN(C[C@@H](O)[C@H](Cc1ccc(OCCCNC(=O)OC(C)(C)C)cc1)NC(=O)O[C@H]1CO[C@H]2OCC[C@H]21)S(=O)(=O)c1ccc2c(c1)OCO2` [Compound 221, (3R,3aS,6aR)-hexahydrofuro[2,3-b]furan-3-yl (1S,2R)-3-[(1,3-benzodioxol-5-ylsulfonyl)(isobutyl)amino]-1-(4-{3-[(tert-butoxycarbonyl)amino]propoxy}benzyl)-2-hydroxypropylcarbamate]: the IC50 (in the assay on HIV-1 (strain IIIB) (setting [3]); in assay [1] (setting [4]); in assay [2] (setting [5])) was 1 to 10 nM each time.

In the case of `CC(C)CN(C[C@@H](O)[C@H](Cc1ccc(OCCCC(=O)N(C)C)cc1)NC(=O)OC1CO[C@H]2OCC[C@@H]12)S(=O)(=O)c1ccc2c(c1)OCO2` (stereo in doubt) [Compound 287, (3R,3aS,6aR)-hexahydrofuro[2,3-b]furan-3-yl (1S,2R)-3-[(1,3-benzodioxol-5-ylsulfonyl)(isobutyl)amino]-1-{4-[4-(dimethylamino)-4-oxobutoxy]benzyl}-2-hydroxypropylcarbamate], the IC50 (in the assay with HIV-1 (strain IIIB) (setting [3]); in assay [1] (setting [4]); in assay [2] (setting [5])) was 1 to 10 nM each time.

Consider `CC(C)CN(C[C@@H](O)[C@H](Cc1ccc(OC(=O)NCCn2ccnc2)cc1)NC(=O)O[C@H]1CO[C@H]2OCC[C@H]21)S(=O)(=O)c1ccc2c(c1)OCO2` [Compound 313, (3R,3aS,6aR)-Hexahydrofuro[2,3-b]furan-3-yl (1S,2R)-3-[(1,3-benzodioxol-5-ylsulfonyl)(isobutyl)amino]-2-hydroxy-1-{4-[({[2-(1H-imidazol-1-yl)ethyl]amino}carbonyl)oxy]benzyl}propylcarbamate], for which the IC50 in the assay with HIV-1 (strain IIIB) (setting [3]) is 10 to 100 nM; in assay [1] (setting [4]) it was 1 to 10 nM; in assay [2] (setting [5]), 1 to 10 nM.

Consider `CC(C)CN(C[C@@H](O)[C@H](Cc1ccc(OCc2nnsc2Cl)cc1)NC(=O)O[C@H]1CO[C@H]2OCC[C@H]21)S(=O)(=O)c1ccc2c(c1)OCO2` [Compound 386, (3R,3aS,6aR)-hexahydrofuro[2,3-b]furan-3-yl (1S,2R)-3-[(1,3-benzodioxol-5-ylsulfonyl)(isobutyl)amino]-1-{4-[(5-chloro-1,2,3-thiadiazol-4-yl)methoxy]benzyl}-2-hydroxypropylcarbamate], for which the IC50 was 1 to 10 nM in the assay on HIV-1 (strain IIIB) (setting [3]), 1 to 10 nM in assay [1] (setting [4]) and 10 to 100 nM in assay [2] (setting [5]).

For `CC(C)CN(C[C@@H](O)[C@H](Cc1ccc(OCCCCN(C)C)cc1)NC(=O)O[C@H]1CO[C@H]2OCC[C@H]21)S(=O)(=O)c1ccc2c(c1)OCO2` [Compound 275, (3R,3aS,6aR)-hexahydrofuro[2,3-b]furan-3-yl (1S,2R)-3-[(1,3-benzodioxol-5-ylsulfonyl)(isobutyl)amino]-1-{4-[4-(dimethylamino)butoxy]benzyl}-2-hydroxypropylcarbamate], the results for the IC50 (in the assay with HIV-1 (strain IIIB) (setting [3]); in assay [1] (setting [4]); in assay [2] (setting [5])) were 10 to 100 nM, 1 to 10 nM and 10 to 100 nM, respectively.

Consider `CC(C)CN(C[C@@H](O)[C@H](Cc1ccc(OCCCNc2ccc(C#N)cn2)cc1)NC(=O)O[C@H]1CO[C@H]2OCC[C@H]21)S(=O)(=O)c1ccc2c(c1)OCO2` [Compound 270, (3R,3aS,6aR)-hexahydrofuro[2,3-b]furan-3-yl (1S,2R)-3-[(1,3-benzodioxol-5-ylsulfonyl)(isobutyl)amino]-1-(4-{3[(5-cyano-2-pyridinyl)amino]propoxy}benzyl)-2-hydroxypropylcarbamate], for which the IC50 (in the assay on HIV-1 (strain IIIB) (setting [3]); in assay [1] (setting [4]); in assay [2] (setting [5])) was 1 to 10 nM each time.

With `CC(C)CN(C[C@@H](O)[C@@H](N)Cc1ccc(OCc2ccccc2)cc1)S(=O)(=O)c1ccc2c(c1)OCO2` [Compound 308, N-{(2R,3S)-3-Amino-4-[4-(benzyloxy)phenyl]-2-hydroxybutyl}-N-isobutyl-1,3-benzodioxole-5-sulfonamide], the IC50 with HIV-1 (strain IIIB) (setting [3]) lay within 10 to 100 nM; in assay [1] (setting [4]) it was 1 to 10 nM; in assay [2] (setting [5]), 1 to 10 nM.

As to `CC(C)CN(C[C@@H](O)[C@H](Cc1ccc(OCC#N)cc1)NC(=O)O[C@H]1CO[C@H]2OCC[C@H]21)S(=O)(=O)c1ccc2c(c1)OCO2` [Compound 393, (3R,3aS,6aR)-hexahydrofuro[2,3-b]furan-3-yl (1S,2R)-3-[(1,3-benzodioxol-5-ylsulfonyl)(isobutyl)amino]-1-[4-(cyanomethoxy)benzyl]-2-hydroxypropylcarbamate], the IC50 (with HIV-1 (strain IIIB) (setting [3]); in assay [1] (setting [4]); in assay [2] (setting [5])) was 10 to 100 nM each time.

Regarding `CC(C)CN(C[C@@H](O)[C@H](Cc1ccc(OCc2noc(C(C)(C)C)n2)cc1)NC(=O)O[C@H]1CO[C@H]2OCC[C@H]21)S(=O)(=O)c1ccc2c(c1)OCO2` [Compound 370], the IC50 is below 1 nM in the assay on HIV-1 (strain IIIB) (setting [3]), 1 to 10 nM in assay [1] (setting [4]) and 1 to 10 nM in assay [2] (setting [5]).

As to `CC(C)CN(C[C@@H](O)[C@H](Cc1ccc(OCc2cccc(C#N)c2)cc1)NC(=O)O[C@H]1CO[C@H]2OCC[C@H]21)S(=O)(=O)c1ccc2c(c1)OC(F)(F)O2` [Compound 342, (3R,3aS,6aR)-hexahydrofuro[2,3-b]furan-3-yl (1S,2R)-1-{4-[(3-cyanobenzyl)oxy]benzyl}-3-[[(2,2-difluoro-1,3-benzodioxol-5-yl)sulfonyl](isobutyl)amino]-2-hydroxypropylcarbamate], the IC50 (in the assay on HIV-1 (strain IIIB) (setting [3]); in assay [1] (setting [4]); in assay [2] (setting [5])) was 10 to 100 nM in each case.

For `CC(C)CN(C[C@@H](O)[C@H](Cc1ccc(OCCO)cc1)NC(=O)O[C@H]1CO[C@H]2OCC[C@H]21)S(=O)(=O)c1ccc2c(c1)OCO2` [Compound 322, (3R,3aS,6aR)-Hexahydrofuro[2,3-b]furan-3-yl (1S,2R)-3-[(1,3-benzodioxol-5-ylsulfonyl)(isobutyl)amino]-2-hydroxy-1-[4-(2-hydroxyethoxy)benzyl]propylcarbamate], the IC50 (in the assay on HIV-1 (strain IIIB) (setting [3]); in assay [1] (setting [4]); in assay [2] (setting [5])) was 1 to 10 nM throughout.

Turning to `CC(C)CN(C[C@@H](O)[C@H](Cc1ccc(OCc2ccncc2)cc1)NC(=O)O[C@H]1CO[C@H]2OCC[C@H]21)S(=O)(=O)c1ccc2c(c1)OCO2` [Compound 54, Bis-THF Methylenedioxybenzenesulfonamide 4-picolyl Tethered Product], the IC50 lay in the range of 10 to 100 nM in the assay on HIV-1 (strain IIIB) (setting [3]); 1 to 10 nM with HIV-1 (strain IIIB) (Human immunodeficiency virus 1, MT4, 120 h, MT-4 cells, HIV-1 strain IIIB, 5 days, read-out: IC50 (Antiviral Activity of Compounds of the Invention)); 1 to 10 nM in assay [1] (setting [4]); 1 to 10 nM in assay [2] (setting [5]).

Consider `CC(=O)NCCCCOc1ccc(C[C@H](NC(=O)O[C@H]2CO[C@H]3OCC[C@H]32)[C@H](O)CN(CC(C)C)S(=O)(=O)c2ccc3c(c2)OCO3)cc1` [Compound 230], for which the IC50 lay in the range of 10 to 100 nM in the assay with HIV-1 (strain IIIB) (setting [6]), 1 to 10 nM in assay [1] (setting [7]) and 1 to 10 nM in assay [2] (setting [8]).

For `CC(C)CN(C[C@@H](O)[C@H](Cc1ccc(OCCCNS(C)(=O)=O)cc1)NC(=O)O[C@H]1CO[C@H]2OCC[C@H]21)S(=O)(=O)c1ccc2c(c1)OCO2` [Compound 251], the IC50 in the assay with HIV-1 (strain IIIB) (setting [6]) is 10 to 100 nM; in assay [1] (setting [7]) it was 1 to 10 nM; in assay [2] (setting [8]), 1 to 10 nM.

For `CC(C)CN(C[C@@H](O)[C@H](Cc1ccc(OCCNC(=O)N(C)C)cc1)NC(=O)O[C@H]1CO[C@H]2OCC[C@H]21)S(=O)(=O)c1ccc2c(c1)OCO2` [Compound 253], the concentration for half-maximal inhibition (IC50) lay in the range of 10 to 100 nM in the assay with HIV-1 (strain IIIB) (setting [6]), 1 to 10 nM in assay [1] (setting [7]) and 1 to 10 nM in assay [2] (setting [8]).

Regarding `CNC(=O)OCCOc1ccc(C[C@H](NC(=O)O[C@H]2CO[C@H]3OCC[C@H]32)[C@H](O)CN(CC(C)C)S(=O)(=O)c2ccc3c(c2)OCO3)cc1` [Compound 323, (3R,3aS,6aR)-Hexahydrofuro[2,3-b]furan-3-yl (1S,2R)-3-[(1,3-benzodioxol-5-ylsulfonyl)(isobutyl)amino]-2-hydroxy-1-[4-(2-{[(methylamino)carbonyl]oxy}ethoxy)benzyl]propylcarbamate], the IC50 (in the assay on HIV-1 (strain IIIB) (setting [3]); in assay [1] (setting [4]); in assay [2] (setting [5])) was 1 to 10 nM in each case.

Consider `Cc1nc(COc2ccc(C[C@H](NC(=O)O[C@H]3CO[C@H]4OCC[C@H]43)[C@H](O)CN(CC(C)C)S(=O)(=O)c3ccc(O)c(C)c3)cc2)cs1` [Compound 348, (3R,3aS,6aR)-hexahydrofuro[2,3-b]furan-3-yl (1S,2R)-2-hydroxy-3-[[(4-hydroxy-3-methylphenyl)sulfonyl](isobutyl)amino]-1-{4-[(2-methyl-1,3-thiazol-4-yl)methoxy]benzyl}propylcarbamate], for which the IC50 (in the assay on HIV-1 (strain IIIB) (setting [3]); in assay [1] (setting [4]); in assay [2] (setting [5])) was 1 to 10 nM throughout.

A word on the IC50: it is the midpoint of a concentration-inhibition curve.
